Assay results reported in the supplement of paper PMC12076712.

Experiments:
Assay in all cases: pIC50, kinobeads binding competition
Details in all cases: cell material: Jurkat lysate
PIM3 = PIM3 (UniProt Q86V86)
UniProt Q13164 = molecular target: UniProt Q13164
UniProt O14920 = molecular target: T1, UniProt O14920
T1 sequence (whole entry): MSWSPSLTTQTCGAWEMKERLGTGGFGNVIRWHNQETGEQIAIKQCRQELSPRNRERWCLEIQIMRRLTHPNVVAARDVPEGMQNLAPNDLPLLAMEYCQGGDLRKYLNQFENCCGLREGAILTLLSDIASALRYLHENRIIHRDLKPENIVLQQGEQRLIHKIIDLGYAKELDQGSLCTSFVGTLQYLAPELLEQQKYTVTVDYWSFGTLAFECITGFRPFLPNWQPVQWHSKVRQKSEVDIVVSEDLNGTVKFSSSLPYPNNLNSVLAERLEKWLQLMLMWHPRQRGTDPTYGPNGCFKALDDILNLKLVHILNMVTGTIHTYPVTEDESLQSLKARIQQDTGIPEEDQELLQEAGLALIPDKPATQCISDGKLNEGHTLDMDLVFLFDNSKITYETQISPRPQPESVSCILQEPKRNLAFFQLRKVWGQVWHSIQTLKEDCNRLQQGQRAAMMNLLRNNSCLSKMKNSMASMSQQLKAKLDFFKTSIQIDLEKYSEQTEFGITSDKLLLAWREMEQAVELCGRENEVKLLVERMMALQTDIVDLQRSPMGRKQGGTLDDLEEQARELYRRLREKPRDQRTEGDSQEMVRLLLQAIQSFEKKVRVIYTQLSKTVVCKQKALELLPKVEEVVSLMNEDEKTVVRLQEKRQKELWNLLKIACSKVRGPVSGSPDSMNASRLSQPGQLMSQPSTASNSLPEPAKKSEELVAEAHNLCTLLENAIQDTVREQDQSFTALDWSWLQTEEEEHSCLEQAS

UniProt Q13163 = molecular target: T2, UniProt Q13163
T2 sequence (whole entry): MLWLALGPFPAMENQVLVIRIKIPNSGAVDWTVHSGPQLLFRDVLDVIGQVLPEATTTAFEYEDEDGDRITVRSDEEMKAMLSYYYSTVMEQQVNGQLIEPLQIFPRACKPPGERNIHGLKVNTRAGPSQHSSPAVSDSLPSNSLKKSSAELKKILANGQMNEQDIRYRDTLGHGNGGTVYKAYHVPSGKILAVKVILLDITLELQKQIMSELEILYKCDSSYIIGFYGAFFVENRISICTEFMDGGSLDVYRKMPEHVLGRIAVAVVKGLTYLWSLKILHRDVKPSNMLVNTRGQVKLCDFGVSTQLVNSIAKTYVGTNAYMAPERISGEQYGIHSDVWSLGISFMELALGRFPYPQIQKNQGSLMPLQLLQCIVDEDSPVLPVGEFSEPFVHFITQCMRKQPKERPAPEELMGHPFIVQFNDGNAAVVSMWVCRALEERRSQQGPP

RAF1 = RAF1 (UniProt P04049)
Chain of RAF1 (P04049 whole entry): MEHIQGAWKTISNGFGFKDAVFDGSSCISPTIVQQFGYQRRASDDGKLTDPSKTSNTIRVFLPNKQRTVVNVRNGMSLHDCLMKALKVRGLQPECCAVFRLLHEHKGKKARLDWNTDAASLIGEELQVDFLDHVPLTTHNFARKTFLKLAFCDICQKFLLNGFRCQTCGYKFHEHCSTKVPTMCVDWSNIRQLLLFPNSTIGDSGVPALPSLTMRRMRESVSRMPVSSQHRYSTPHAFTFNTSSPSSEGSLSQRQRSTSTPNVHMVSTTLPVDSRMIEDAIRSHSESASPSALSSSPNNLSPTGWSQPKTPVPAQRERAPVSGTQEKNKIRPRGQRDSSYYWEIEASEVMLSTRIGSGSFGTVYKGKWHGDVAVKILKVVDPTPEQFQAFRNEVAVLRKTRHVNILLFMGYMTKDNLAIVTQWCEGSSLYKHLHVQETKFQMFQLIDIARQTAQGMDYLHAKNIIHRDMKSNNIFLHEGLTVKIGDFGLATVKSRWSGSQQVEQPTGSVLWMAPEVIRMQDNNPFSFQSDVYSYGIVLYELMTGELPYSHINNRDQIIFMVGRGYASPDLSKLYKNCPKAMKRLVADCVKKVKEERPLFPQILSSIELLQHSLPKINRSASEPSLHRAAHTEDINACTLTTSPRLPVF

PHKG2 = molecular target: T3, PHKG2 (UniProt P15735)
T3 sequence (whole entry): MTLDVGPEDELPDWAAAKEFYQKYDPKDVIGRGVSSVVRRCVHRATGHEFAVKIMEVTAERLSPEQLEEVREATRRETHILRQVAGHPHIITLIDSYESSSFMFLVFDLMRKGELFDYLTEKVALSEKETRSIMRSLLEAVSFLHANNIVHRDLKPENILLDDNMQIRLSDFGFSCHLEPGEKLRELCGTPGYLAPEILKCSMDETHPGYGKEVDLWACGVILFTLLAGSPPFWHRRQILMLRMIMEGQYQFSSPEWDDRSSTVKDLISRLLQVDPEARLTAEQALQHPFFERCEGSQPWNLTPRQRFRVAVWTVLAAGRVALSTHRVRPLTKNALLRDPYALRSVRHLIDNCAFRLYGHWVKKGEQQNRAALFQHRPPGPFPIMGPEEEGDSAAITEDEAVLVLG

GAK = molecular target: T4, GAK (UniProt O14976)
T4 sequence (whole entry): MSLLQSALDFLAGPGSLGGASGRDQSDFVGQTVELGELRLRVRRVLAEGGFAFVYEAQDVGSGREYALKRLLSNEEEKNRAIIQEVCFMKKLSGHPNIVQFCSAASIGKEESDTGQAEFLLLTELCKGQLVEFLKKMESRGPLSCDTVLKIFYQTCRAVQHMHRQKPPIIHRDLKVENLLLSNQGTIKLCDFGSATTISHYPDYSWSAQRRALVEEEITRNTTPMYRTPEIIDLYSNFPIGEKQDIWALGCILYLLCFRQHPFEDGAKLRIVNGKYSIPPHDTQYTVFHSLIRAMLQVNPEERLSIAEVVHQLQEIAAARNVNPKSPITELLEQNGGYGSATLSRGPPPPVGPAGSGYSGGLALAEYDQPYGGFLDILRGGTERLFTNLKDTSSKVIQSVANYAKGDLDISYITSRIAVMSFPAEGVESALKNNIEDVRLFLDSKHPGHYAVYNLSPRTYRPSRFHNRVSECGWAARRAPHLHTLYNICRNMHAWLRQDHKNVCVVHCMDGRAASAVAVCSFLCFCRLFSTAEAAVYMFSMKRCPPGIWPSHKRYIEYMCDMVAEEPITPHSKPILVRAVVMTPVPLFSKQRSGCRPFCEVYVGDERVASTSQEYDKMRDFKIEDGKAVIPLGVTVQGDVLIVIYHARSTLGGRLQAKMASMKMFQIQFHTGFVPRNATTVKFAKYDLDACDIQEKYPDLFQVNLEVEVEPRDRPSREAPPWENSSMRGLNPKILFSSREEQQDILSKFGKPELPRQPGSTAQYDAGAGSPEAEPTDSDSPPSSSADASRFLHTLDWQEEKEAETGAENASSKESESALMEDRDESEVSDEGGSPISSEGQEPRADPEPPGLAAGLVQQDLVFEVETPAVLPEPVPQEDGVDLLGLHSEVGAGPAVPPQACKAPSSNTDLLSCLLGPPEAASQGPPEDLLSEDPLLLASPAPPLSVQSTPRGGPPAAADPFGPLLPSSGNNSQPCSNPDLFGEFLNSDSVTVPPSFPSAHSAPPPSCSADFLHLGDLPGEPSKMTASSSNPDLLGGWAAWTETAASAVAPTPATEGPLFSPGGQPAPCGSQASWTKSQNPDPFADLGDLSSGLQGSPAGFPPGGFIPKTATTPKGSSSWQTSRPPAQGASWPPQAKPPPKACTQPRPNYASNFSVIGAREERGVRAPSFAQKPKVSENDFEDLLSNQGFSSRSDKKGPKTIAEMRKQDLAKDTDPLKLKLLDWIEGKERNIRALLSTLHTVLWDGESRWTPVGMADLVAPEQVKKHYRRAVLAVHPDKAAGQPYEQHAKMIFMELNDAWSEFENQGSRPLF

Chain of UniProt Q13164 (Q13164 whole entry, looked up): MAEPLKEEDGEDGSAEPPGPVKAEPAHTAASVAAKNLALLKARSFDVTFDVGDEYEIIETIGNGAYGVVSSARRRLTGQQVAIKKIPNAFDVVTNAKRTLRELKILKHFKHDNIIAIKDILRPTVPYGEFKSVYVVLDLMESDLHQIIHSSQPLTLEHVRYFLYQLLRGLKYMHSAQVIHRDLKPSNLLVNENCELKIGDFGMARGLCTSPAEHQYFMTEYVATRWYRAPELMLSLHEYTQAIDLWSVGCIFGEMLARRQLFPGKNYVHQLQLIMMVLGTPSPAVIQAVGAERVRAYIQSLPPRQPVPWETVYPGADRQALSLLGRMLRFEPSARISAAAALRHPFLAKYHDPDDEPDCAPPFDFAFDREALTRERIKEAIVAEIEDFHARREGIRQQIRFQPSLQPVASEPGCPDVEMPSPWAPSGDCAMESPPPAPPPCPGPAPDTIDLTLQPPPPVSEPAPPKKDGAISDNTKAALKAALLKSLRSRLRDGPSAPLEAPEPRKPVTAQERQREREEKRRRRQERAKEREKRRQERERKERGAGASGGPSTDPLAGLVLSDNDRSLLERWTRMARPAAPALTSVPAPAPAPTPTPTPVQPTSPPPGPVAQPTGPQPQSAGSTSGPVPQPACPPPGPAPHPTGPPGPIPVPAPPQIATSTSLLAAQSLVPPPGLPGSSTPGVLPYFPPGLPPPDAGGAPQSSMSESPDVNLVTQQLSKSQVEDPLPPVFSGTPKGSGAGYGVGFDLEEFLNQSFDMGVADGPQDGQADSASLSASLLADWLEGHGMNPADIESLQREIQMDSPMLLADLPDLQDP

pIC50 (PIM3): < 4.52
pIC50 (UniProt Q13164): < 4.52
pIC50 (UniProt O14920): < 4.52
pIC50 (UniProt Q13163): < 4.52
pIC50 (RAF1): < 4.52
pIC50 (PHKG2): < 4.52
pIC50 (GAK): < 4.52
SMILES: CCc1cnn2c(NCc3ccc[n+]([O-])c3)cc(N3CCCC[C@H]3CCO)nc12 [dinaciclib]
